One data set in a line: in vitro. Conditions: human; for Papp A→B at 180 min, 25 µg/mL (extract) / Papp B→A at 180 min, 25 µg/mL (extract): Caco-2; for efflux ratio at 180 min, 25 µg/mL: Caco-2, Efflux ratio P BA/P AB.
Data set [1] relates to Caco-2 cell monolayer. Conditions: human.
The conditions of data set [2]: cited from earlier work.
In another data set the test system is Caco-2 cultures. Nature of the data set: MTS assay on Caco-2 cultures. The note with it: 10 µM. The format is cell-based, human. On the procedure:
The pure compounds 5, 6, 10, 13 and 14 were added into the Caco-2 cultures at a final concentration of 10 µM.

Data set [3] has as its system Caco-2 cell monolayer. Briefly: Bidirectional transport across the Caco-2 cell monolayer (LC/MS/MS). The note with it: for decrease of PBA in extract compared to the single form: extract versus single compound; for P app P BA: BL to AP; for permeability through the Caco-2 cell layer: pure compounds; for permeability through the Caco-2 cell layer / Efflux ratio P BA/P AB: 10 µM; for Efflux ratio P BA/P AB: as single compounds. In general terms: Caco-2 monolayers are a common model of the intestinal barrier.

Test in data set [4]: as above
Conditions: human; for efflux ratio at 180 min, 10 µM / efflux ratio at 180 min, 25 µg/mL: Caco-2, Efflux ratio P BA/P AB; for efflux ratio at 180 min, 10 µM: as single compounds; for efflux ratio at 180 min, 25 µg/mL: in A. cinnamomea extract (25 µg/mL).

Data set [5] in a line: Solubility (stated in words). The note with it: both in the extract and single forms (13 and 14).
The nature of data set [6]: Leakage marker sodium fluorescein transport, AP to BL, Caco-2 monolayer integrity. The format is in vitro ADME. Conditions: human. As for the experimental part:
The integrity of cell monolayers was also assessed by the transport of the leakage marker sodium fluorescein. On day 21, the Caco-2 monolayers were rinsed twice with pre-warmed HBSS and were then incubated with the same solution at 37 °C for 30 min, on a shaker at 50 rpm. The fluorescein was pre-dissolved in 1 mM NaOH/H2O (1:10, v/v), and then diluted to 1 mM with an appropriate volume of HBSS. The sodium fluorescein and blank HBSS were added to the AP (0.5 mL) and BL side (1.5 mL), respectively. At 30, 60, 90, and 120 min, each 0.3 mL of the solution from BL side was collected, and replaced with an equal volume of HBSS. The sodium fluorescein intensity was determined with a Hitachi F-4500 fluorometer (excitation wavelength 490 nm, emission 525 nm).

[7] abbreviates: in A. cinnamomea extract (25 µg/mL).

The values that follow come from article PMC4607679, “Intestinal Absorption of Ergostane and Lanostane Triterpenoids from Antrodia cinnamomea Using Caco-2 Cell Monolayer Model” (Natural Products and Bioprospecting, 2015).

Entries after “also recorded” stand apart in the source; their conditions may differ. Where two headings read alike, the source gives them in different places.

For orientation: Papp B→A means how fast a substance crosses the layer from the basolateral side. The term efflux ratio denotes a quotient of directional permeabilities that is used to spot active efflux. For `C=C(CC[C@@H](C)[C@H]1CC[C@H]2C3=C(C(=O)C[C@]12C)[C@@]1(C)CCC(=O)[C@@H](C)[C@@H]1CC3)C(C)C(=O)O` (mixture of isomers) [compound 11, (R/S)-antcin A], in the data set “in vitro”, the Papp A→B at 180 min, 25 µg/mL (extract) is 79.2 ± 4.2 ×10⁻⁶ cm/s; the Papp B→A at 180 min, 25 µg/mL (extract) is 47.9 ± 2.3 ×10⁻⁶ cm/s; the efflux ratio at 180 min, 25 µg/mL came out at 0.6.
As to `CC(C)=CCC[C@@H](C(=O)O)[C@H]1C[C@H](O)[C@@]2(C)C3=CC[C@H]4C(C)(C)[C@H](O)CC[C@]4(C)C3=CC[C@]12C` [compound 7, 3β,15α-dihydroxylanosta-7,9(11),24-triene-21-oic acid], in the data set with Caco-2 cell monolayer [1] (Caco-2, 180 min, 25 µg/mL), the transport rate turned out to be 38.8%. In addition, in the data set “in vitro”, the Papp A→B at 180 min, 25 µg/mL (extract) was found to be 37.4 ± 4.3 ×10⁻⁶ cm/s; the Papp B→A at 180 min, 25 µg/mL (extract) came out at 35.7 ± 3.8 ×10⁻⁶ cm/s; the efflux ratio at 180 min, 25 µg/mL turned out to be 0.96.
Take `C=C(CC[C@@H](C)[C@H]1CC[C@H]2C3=C(C(=O)C[C@]12C)[C@@]1(C)CC[C@@H](O)[C@](C)(O)[C@@H]1C[C@@H]3O)[C@@H](C)C(=O)O` [compound 2, 25R-antcin K]: the transport rate with Caco-2 cell monolayer [1] (Caco-2, 25 µg/mL) is 112%. Also, in “in vitro”, the Papp A→B at 180 min, 25 µg/mL (extract) amounted to 57.4 ± 2.7 ×10⁻⁶ cm/s; the Papp B→A at 180 min, 25 µg/mL (extract) stood at 44.8 ± 3 ×10⁻⁶ cm/s; the efflux ratio at 180 min, 25 µg/mL was determined as 0.78. Besides, the “plasma exposure” value in data set [2] (rat, in vivo) is given as “major plasma-exposed components”.
Turning to `C=C(CC[C@@H](C)[C@H]1CC[C@H]2C3=C(C(=O)[C@H](O)[C@]12C)[C@@]1(C)CC[C@@H](O)[C@@H](C)[C@@H]1CC3=O)[C@H](C)C(=O)O` [compound 6, 25S-antcin H], the “toxicity to the cells (MTS assay)” value in the data set with Caco-2 cultures is recorded as “non-toxic”. Also, in data set [2] (rats, after A. cinnamomea), the “plasma exposure” value is on record as “major plasma-exposed components”. In addition, in the data set with Caco-2 cell monolayer [3], the “decrease of PBA in extract compared to the single form” value (shortened to “decrease of PBA in extract”) was 50–60% and the “permeability through the Caco-2 cell layer” value is recorded as “could readily pass through; also recorded: high permeability”. Moreover, the “P app P AB” value in the data set with Caco-2 cell monolayer [3] (in A. cinnamomea extract (25 µg/mL), AP to BL) is recorded as 3.18 ± 0.34 ×10^−5 cm/s. Also, the “P app P BA” value in the data set with Caco-2 cell monolayer [3] (setting [7]) is 3.0–3.8 ×10^−5 cm/s. Also, in data set [4] (Caco-2), the Papp A→B at 180 min, 10 µM was found to be 31.4 ± 5.6 ×10⁻⁶ cm/s; the Papp B→A at 180 min, 10 µM worked out at 92 ± 13.4 ×10⁻⁶ cm/s; the Papp B→A at 180 min, 25 µg/mL (extract) came out at 30.5 ± 3.8 ×10⁻⁶ cm/s. In data set [4], the efflux ratio at 180 min, 10 µM is greater than 2 and the efflux ratio at 180 min, 25 µg/mL came to 0.99.
As for `C=C(CC[C@@H](C)[C@H]1CC[C@H]2C3=C(C(=O)C[C@]12C)[C@@]1(C)CCC(=O)[C@@H](C)[C@@H]1C[C@@H]3O)[C@@H](C)C(=O)O` [compound 4, 25R-antcin C], in data set [2] (rats, after A. cinnamomea), the “plasma exposure” value is listed as “much lower plasma concentrations”. In addition, in data set [4] (Caco-2), the Papp A→B at 180 min, 25 µg/mL (extract) is 74.1 ± 19 ×10⁻⁶ cm/s and the apparent permeability from basolateral to apical (Papp B→A) at 180 min, 25 µg/mL (extract) stood at 51.3 ± 2.7 ×10⁻⁶ cm/s. For the same molecule, the efflux ratio at 180 min, 25 µg/mL in data set [4] was determined as 0.69.
Regarding `C=C(CC[C@@H](C)[C@H]1CC[C@H]2C3=C(C(=O)C[C@]12C)[C@@]1(C)CCC(=O)[C@@H](C)[C@@H]1CC3=O)[C@@H](C)C(=O)O` [compound 10, 25R-antcin B], in the data set on Caco-2 cultures, the “toxicity to the cells (MTS assay)” value is listed as “non-toxic”. Moreover, in data set [2] (rats, after A. cinnamomea), the “plasma exposure” value is recorded as “much lower plasma concentrations”. In the data set with Caco-2 cell monolayer [3], the “Efflux ratio P BA/P AB” value is recorded as 2.07, the “decrease of PBA in extract” value is 50–60% and the “permeability through the Caco-2 cell layer” value is “could readily pass through; also recorded: high permeability”. Besides, the “P app P BA” value in the data set on Caco-2 cell monolayer [3] (setting [7]) is 3.0–3.8 ×10^−5 cm/s. Further, the “metabolites detected in the AP side” value in the data set on Caco-2 cell monolayer [3] (single compound 10 µM, 120 min (Fig. S2)) is “two hydrogenated metabolites”. In data set [4] (Caco-2), the Papp A→B at 180 min, 10 µM was determined as 28.3 ± 4.3 ×10⁻⁶ cm/s; the Papp A→B at 180 min, 25 µg/mL (extract) came to 41.1 ± 9.2 ×10⁻⁶ cm/s; the Papp B→A at 180 min, 10 µM came out at 58.5 ± 5.8 ×10⁻⁶ cm/s; the Papp B→A at 180 min, 25 µg/mL (extract) is 38.6 ± 3.2 ×10⁻⁶ cm/s. Besides, in data set [4], the efflux ratio at 180 min, 10 µM was greater than 2 and the efflux ratio at 180 min, 25 µg/mL came to 0.94.
On to `CC(C)NCC(O)COc1cccc2ccccc12` (centres unmarked) [propranolol, reference compound], for which, in the data set on Caco-2 cell monolayer [3] (marker compound, AP to BL (Table S5)), the “PAB value of marker compound” value is recorded as 3.81 ± 0.34 × 10^−5 cm/s. In data set [4] (Caco-2), this molecule yielded a Papp A→B at 30 min of 35.1 ± 10.6 ×10⁻⁶ cm/s, a Papp A→B at 60 min of 37.6 ± 4.5 ×10⁻⁶ cm/s, a Papp A→B at 90 min of 34.3 ± 4.6 ×10⁻⁶ cm/s and a Papp A→B at 120 min of 38.1 ± 3.4 ×10⁻⁶ cm/s.
In the case of `C=C(CC[C@@H](C(=O)O)[C@H]1C[C@H](O)[C@@]2(C)C3=CC[C@H]4C(C)(C)[C@@H](O)CC[C@]4(C)C3=CC[C@]12C)C(C)C` [compound 8, dehydrosulphurenic acid], the “solubility” value in data set [5] was “very low”. The “permeability” value in the data set with Caco-2 cell monolayer [3] (both in the extract and single forms (13 and 14)) is “very low”; in the data set on Caco-2 cell monolayer [3] (in A. cinnamomea extract), “poor permeability”.
With `O=C1OC2(c3ccc(O)cc3Oc3cc(O)ccc32)c2ccccc21` [sodium fluorescein], in data set [6] (1 mM, day 21 monolayer, read-out: Papp value AP to BL side), the Papp A→B at 1 mM is less than 1 ×10⁻⁶ cm/s. For the same molecule, the Papp A→B at 30 min, 1 mM in data set [6] (30 min) turned out to be 0.798 ± 0.199 ×10⁻⁶ cm/s. Moreover, the Papp A→B at 60 min, 1 mM in data set [6] (60 min) amounted to 0.771 ± 0.144 ×10⁻⁶ cm/s. For the same molecule, the Papp A→B at 90 min, 1 mM in data set [6] (90 min) stood at 0.765 ± 0.14 ×10⁻⁶ cm/s. This molecule also had a Papp A→B at 120 min, 1 mM in data set [6] (120 min) of 0.708 ± 0.298 ×10⁻⁶ cm/s.
Turning to `C=C(CC[C@@H](C)[C@H]1CC[C@H]2C3=C(C(=O)C[C@]12C)[C@@]1(C)CC[C@@H](O)[C@](C)(O)[C@@H]1C[C@@H]3O)[C@H](C)C(=O)O` [compound 1, 25S-antcin K], in “in vitro”, the Papp A→B at 180 min, 25 µg/mL (extract) worked out at 78 ± 8.6 ×10⁻⁶ cm/s; the Papp B→A at 180 min, 25 µg/mL (extract) amounted to 53.2 ± 3.1 ×10⁻⁶ cm/s; the efflux ratio at 180 min, 25 µg/mL came out at 0.68. Further, in data set [2] (rat, in vivo), the “plasma exposure” value is “major plasma-exposed components”.
As for `C=C(CC[C@@H](C)[C@H]1CC[C@H]2C3=C(C(=O)C[C@]12C)[C@@]1(C)CCC(=O)[C@@H](C)[C@@H]1CC3=O)[C@H](C)C(=O)O` [compound 9, 25S-antcin B], the “plasma exposure” value in data set [2] (rats, after A. cinnamomea) is reported as “much lower plasma concentrations”. In data set [4] (Caco-2), this molecule registered a Papp A→B at 180 min, 25 µg/mL (extract) of 26.5 ± 5.3 ×10⁻⁶ cm/s and a Papp B→A at 180 min, 25 µg/mL (extract) of 27.6 ± 2.7 ×10⁻⁶ cm/s. Besides, the efflux ratio at 180 min, 25 µg/mL in data set [4] turned out to be 1.04.
For `C=C(CC[C@@H](C)[C@H]1CC[C@H]2C3=C(C(=O)[C@H](O)[C@]12C)[C@@]1(C)CC[C@@H](O)[C@@H](C)[C@@H]1CC3=O)[C@@H](C)C(=O)O` [compound 5, 25R-antcin H], the “toxicity to the cells (MTS assay)” value with Caco-2 cultures was “non-toxic”. In addition, the “plasma exposure” value in data set [2] (rats, after A. cinnamomea) was “major plasma-exposed components”. In addition, in the data set on Caco-2 cell monolayer [3], the “Efflux ratio P BA/P AB” value is 2.26, the “decrease of PBA in extract” value was 50–60% and the “permeability through the Caco-2 cell layer” value is reported as “could readily pass through; also recorded: high permeability”. The “P app P BA” value in the data set on Caco-2 cell monolayer [3] (setting [7]) is listed as 3.0–3.8 ×10^−5 cm/s. In addition, in data set [4] (Caco-2), the Papp A→B at 180 min, 10 µM is 37.2 ± 4.4 ×10⁻⁶ cm/s; the Papp A→B at 180 min, 25 µg/mL (extract) came out at 39.5 ± 6.4 ×10⁻⁶ cm/s; the Papp B→A at 180 min, 10 µM came to 84.1 ± 13.5 ×10⁻⁶ cm/s; the Papp B→A at 180 min, 25 µg/mL (extract) is 34.7 ± 3.6 ×10⁻⁶ cm/s. Besides, in data set [4], the efflux ratio at 180 min, 10 µM is greater than 2 and the efflux ratio at 180 min, 25 µg/mL came out at 0.88.
Regarding `C=C(CC[C@@H](C)[C@H]1CC[C@H]2C3=C(C(=O)C[C@]12C)[C@@]1(C)CCC(=O)[C@@H](C)[C@@H]1C[C@@H]3O)[C@H](C)C(=O)O` [compound 3, 25S-antcin C], the “plasma exposure” value in data set [2] (rats, after A. cinnamomea) is “much lower plasma concentrations”. Besides, in data set [4] (Caco-2), the Papp A→B at 180 min, 25 µg/mL (extract) is 68.2 ± 5.9 ×10⁻⁶ cm/s and the Papp B→A at 180 min, 25 µg/mL (extract) was determined as 49.9 ± 2.9 ×10⁻⁶ cm/s. Moreover, in data set [4], the efflux ratio at 180 min, 25 µg/mL was determined as 0.73.
